Laboratory results: patent US10598672B2, “Methods and compositions for diagnosing and treating loss and/or distortion of taste or smell” (Cyrano Therapeutics, Inc., priority 2014, dated 2020)

Tests used:
[1] = test system: patients with taste dysfunction; test: Subjective taste acuity and flavor perception (0-100 scale); type: in vivo, human; settings: for FLAVOR PERCEPTION: DEGREE OF IMPROVEMENT / TASTE ACUITY: DEGREE OF IMPROVEMENT: Mean ± SEM
Method: Subjective statements of acuity loss were quantitated by use of a scale from 0-100 with 100 reflecting total loss of taste function, 0 reflecting no loss and a number between 0-100 reflecting appropriate degree of loss. Mean±SEM of loss degree was measured among all patients and each pathology initiating taste dysfunction.
Subjective statements of taste acuity loss and loss of flavor perception were quantitated by use of a scale from 0-100 with 100 reflecting total loss of taste acuity or flavor perception, 0 reflecting no loss and a number between 0-100 reflecting appropriate degree of loss. […] Mean±SEM of loss degree was measured among all patients and each pathology initiating taste dysfunction.
[…] Saliva Shh and measurements of taste function by use of subjective responses of acuity and flavor perception and in olfactometry was measured at intervals of 2-6 months in these patients.

[2] = test system: patients with taste dysfunction; test: Gustometry: DT, RT, ME (and HR) for NaCl, sucrose, HCl, urea; type: in vivo, human
Method: Smell and taste functions under each study condition were measured by standardized psychophysical sensory testing techniques. Measurements included determination of detection thresholds (DTs), recognition thresholds (RTs), magnitude estimation (ME), and hedonic response (HR) for 4 odors (i.e., pyridine [dead fish], nitrobenzene [bitter almond], thiophene [petroleum], and amyl acetate [banana oil]) (olfactometry) and for 4 tastants (i.e., sodium chloride [salt], sucrose [sweet], hydrochloride [sour], and urea [bitter]) (gustometry). These techniques have been previously described with olfactometry confirmed in a prior controlled double-blind clinical trial. Each measurement was performed independent of any prior knowledge of response.
Gustometry measurements included measurements of detection (DT) and recognition (RT) thresholds and magnitude estimation (ME) for four tastants [NaCl (salt), sucrose (sweet), HCl (sour) and urea (bitter)]. Abnormalities of taste function were measured by increased DT or RT above normal (decreased sensitivity) and/or decreased ME (decreased sensitivity) for one or more of the tastants presented.

[3] = test system: patients with hyposmia and hypogeusia; test: Open-label pilot study oral vs intranasal theophylline: subjective smell and taste function by questionnaire (0-100); type: in vivo, human
Source text: (§1) We performed an open-label pilot study in patients with hyposmia and hypogeusia under the following 3 conditions: (1) before treatment, (2) after oral theophylline treatment, and (3) after intranasal theophylline treatment. Under each condition, we performed subjective evaluations of taste or smell functions, quantitative measurements of taste (gustometry) and smell (olfactometry), and measurements of serum theophylline level and body weight.
Subjective changes in smell and taste function under each study condition were measured by questionnaire before measurements of smell or taste function. Responses were graded on a scale from 0 to 100, with 0 reflecting no subjective response in overall sensory function; 100, return to normal sensory function; and values between 0 and 100 intermediate responses. Overall sensory function was defined as the ability to smell all odors and identify all tastants, although response intensity varied.
The 10 patients in this intranasal pilot study entered into the previous oral theophylline study according to a protocol approved by the institutional review board of the Georgetown University Medical Center. In this prior trial, oral theophylline was administered daily in 2 divided doses (at breakfast and lunch) of 200, 400, 600, or 800 mg for 2 to 12 months of treatment. Treatment was divided into 2- to 4-month periods, at which time patients returned to The Clinic for measurements of subjective sensory responses, olfactometry, gustometry, serum theophylline level, and body weight. […] In the 10 patients selected for the intranasal pilot study, oral theophylline treatment was discontinued 3 weeks to 4 months before initiation of the intranasal drug trial. At that time, the mean (SEM) serum theophylline level was unmeasurable in any patient (0 [0] mg/L).
(§2) A pilot study of intranasal theophylline treatment was then initiated among these 10 patients. This trial was an investigator initiated phase 1, open-label, single-source, controlled pilot study. Intranasal drug therapy reflected a compassionate trial of a potentially more useful therapeutic method to improve hyposmia (and hypogeusia) than oral theophylline. Before the intranasal trial, risks and benefits were explained and the patients signed an informed consent.
The intranasal administration device was a calibrated 1 mL syringe fitted with a nozzle that fit comfortably into the anterior naris (Wolfe Tory Medical, Inc.) and loaded under sterile conditions with 20 μg of theophylline methylpropyl paraben in a 0.4-mL saline solution (Foundation Care). Patients were instructed to direct the spray superiorly into the nasal cavity but not posteriorly into the nasopharynx. This technique was practiced before study initiation with sterile saline.
(§3) Each patient delivered the theophylline dose in each naris once daily throughout the study. Patients underwent evaluation 1, 2, and 4 weeks during drug use with the same measurements used for the oral study.
Values for the oral trial were taken from the last measurements made before discontinuation of oral drug treatment and before initiation of the intranasal trial. This period varied from 2 to 12 months after oral treatment initiation and reflected the maximal improvement in sensory function each patient experienced. Values for the intranasal pilot study were taken from measurements obtained after completion of 4 weeks of intranasal treatment.
The mean and standard error of the mean for all values obtained at each study condition were compared. Differences were considered significant if P<0.05 by the unpaired t test. Paired comparison tests were also used with differences considered significant if P<0.05 by the t test.

patients with hyposmia = settings: previous open-label controlled clinical trial, 312 patients with hyposmia and hypogeusia, oral; cited from earlier work
[4] = test system: patients with hyposmia and hypogeusia; test: Adverse effects during intranasal theophylline pilot study; type: in vivo, human; settings: intranasal drug use, 10 patients, 4 weeks
Source text: as §1, §2, §3

[5] = MEN, patient number 38, after oral theophylline
[6] = WOMEN, patient number 41, after oral theophylline
[7] = all patients, patient number 79, after oral theophylline
[8] = TH[…] (81) patients with taste dysfunction, Mean ± SEM
[9] = after intranasal treatment vs before treatment or after oral treatment
[10] = after oral treatment vs before treatment
[11] = after discontinuation of intranasal treatment

## Cn1c(=O)c2[nH]cnc2n(C)c1=O [theophylline]
[1]; [5]
  FLAVOR PERCEPTION: I[…]: 22
  FLAVOR PERCEPTION: I[…], figure in parentheses: 58
  TASTE ACUITY: I[…]: 21
  TASTE ACUITY: I[…], figure in parentheses: 55
  FLAVOR PERCEPTION: DEGREE OF IMPROVEMENT: 18 ± 4%
  TASTE ACUITY: DEGREE OF IMPROVEMENT: 20 ± 5%
[1]; [6]
  FLAVOR PERCEPTION: I[…]: 23
  FLAVOR PERCEPTION: I[…], figure in parentheses: 54
  TASTE ACUITY: I[…]: 24
  TASTE ACUITY: I[…], figure in parentheses: 59
  FLAVOR PERCEPTION: DEGREE OF IMPROVEMENT: 36 ± 6%
  TASTE ACUITY: DEGREE OF IMPROVEMENT: 35 ± 6%
[1]; after oral treatment 200-1000 mg for 2-10 months
  patients with improvement in both subjective taste acuity and flavor perception: about 60%
[1]; [7]
  FLAVOR PERCEPTION: I[…]: 45
  FLAVOR PERCEPTION: I[…], figure in parentheses: 63
  TASTE ACUITY: I[…]: 45
  TASTE ACUITY: I[…], figure in parentheses: 63
  FLAVOR PERCEPTION: DEGREE OF IMPROVEMENT: 24 ± 4%
  TASTE ACUITY: DEGREE OF IMPROVEMENT: 28 ± 4^+ %
[2]; [8]
  NaCl DT, Detection Threshold: 3.4 ± 0.2^
  NaCl ME, Magnitude Estimation: 58 ± 5
  NaCl RT, Recognition Threshold: 3.6 ± 0.2
  SCl DT, Detection Threshold: 3.6 ± 0.2
  SCl ME, Magnitude Estimation: 54 ± 5
  SCl RT, Recognition Threshold: 3.7 ± 0.3
  SUCROSE DT, Detection Threshold: 3.3 ± 0.2
  SUCROSE ME, Magnitude Estimation: 49 ± 5
  SUCROSE RT, Recognition Threshold: 3.6 ± 0.2
  UREA DT, Detection Threshold: 3.9 ± 0.3
  UREA ME, Magnitude Estimation: 54 ± 5
  UREA RT, Recognition Threshold: 3.9 ± 0.3
[2]; [9]
  DTs and RTs for all tastants: lower (more sensitive)
  HRs for sucrose: more positive (more pleasant)
  Hedonic responses for sodium chloride, hydrochloride, and urea: more negative (more unpleasant)
  Magnitude estimations for all tastants: higher (more intense)
[2]; [10]
  DTs for sucrose and hydrochloride and RTs for sodium chloride, hydrochloride, and urea: decreased (more sensitive)
  HR for hydrochloride and urea: increased (more unpleasant)
  Magnitude estimations for all tastants: increased (more sensitive)
[2]; patients with taste dysfunction, oral treatment
  gustometric functions: improving gustometric functions
[3]; [11]
  patients reporting some persistence of improvement after 10 weeks: Four
  patients with loss of smell and taste function after 6 weeks: 2 patients
  patients with loss of smell and taste function within 1 week of discontinuation: 2 patients
[3]; intranasal treatment
  earliest improvement measured after starting treatment: 1 week
[3]; intranasal, 4 weeks, subjective
  improvement measured for taste or smell functions compared with oral treatment: 2 fold
[3]; of 10 patients, intranasal treatment
  patients who reported no improvement: 2 patients
[3]; of 10 patients, intranasal, 20 μg in each naris once daily, 4 weeks
  patients with improved taste or smell acuity / overall improvement in taste or smell functions: 8 patients
[3]; of 10 patients, oral treatment
  patients who reported no improvement: 4 patients
[3]; of 10 patients, oral, 200 to 800 mg/d for 2 to 12 months
  patients with improved taste or smell acuity / overall increased taste or smell function: 6 patients
[3]; oral treatment
  earliest improvement of hyposmia measured after: 2 months
Patients with hyposmia
  patients in whom hyposmia was successfully corrected: more than 50%
[4]
  adverse effects: No adverse effects
